Experimental data taken from BigSolDB 2.1.

Nc1cc(Cl)ccc1C(=O)O
Details | solubility (mole fraction)
in 1,4-dioxane, 283.15 K | 0.0158
in 1,4-dioxane, 285.65 K | 0.0173
in 1,4-dioxane, 288.15 K | 0.0191
in 1,4-dioxane, 290.65 K | 0.0209
in 1,4-dioxane, 293.15 K | 0.0228
in 1,4-dioxane, 295.65 K | 0.0248
in 1,4-dioxane, 298.15 K | 0.0271
in 1,4-dioxane, 300.65 K | 0.0295
in 1,4-dioxane, 303.15 K | 0.032
in 1,4-dioxane, 305.65 K | 0.0348
in 1,4-dioxane, 308.15 K | 0.0375
in 1,4-dioxane, 310.65 K | 0.0405
in 1,4-dioxane, 313.15 K | 0.0436
in NMP, 278.15 K | 0.0323
in NMP, 280.65 K | 0.0338
in NMP, 283.15 K | 0.0354
in NMP, 285.65 K | 0.037
in NMP, 288.15 K | 0.0388
in NMP, 290.65 K | 0.0406
in NMP, 293.15 K | 0.0425
in NMP, 295.65 K | 0.0445
in NMP, 298.15 K | 0.0465
in NMP, 300.65 K | 0.0487
in NMP, 305.65 K | 0.0531
in NMP, 308.15 K | 0.0556
in NMP, 310.65 K | 0.0581
in NMP, 313.15 K | 0.0607
in acetone, 278.15 K | 0.0159
in acetone, 280.65 K | 0.0174
in acetone, 283.15 K | 0.0189
in acetone, 285.65 K | 0.0207
in acetone, 288.15 K | 0.0226
in acetone, 290.65 K | 0.0243
in acetone, 293.15 K | 0.0261
in acetone, 295.65 K | 0.0283
in acetone, 298.15 K | 0.0307
in acetone, 300.65 K | 0.0328
in acetone, 303.15 K | 0.0351
in acetone, 305.65 K | 0.0378
in acetone, 308.15 K | 0.0404
in acetone, 310.65 K | 0.0433
in acetone, 313.15 K | 0.0463
in acetonitrile, 278.15 K | 0.00138
in acetonitrile, 280.65 K | 0.00154
in acetonitrile, 283.15 K | 0.00169
in acetonitrile, 285.65 K | 0.00188
in acetonitrile, 288.15 K | 0.00208
in acetonitrile, 290.65 K | 0.00229
in acetonitrile, 293.15 K | 0.00252
in acetonitrile, 295.65 K | 0.00277
in acetonitrile, 298.15 K | 0.00303
in acetonitrile, 300.65 K | 0.00332
in acetonitrile, 303.15 K | 0.00362
in acetonitrile, 305.65 K | 0.00395
in acetonitrile, 308.15 K | 0.00431
in acetonitrile, 310.65 K | 0.00468
in acetonitrile, 313.15 K | 0.0051
in ethanol, 278.15 K | 0.00994
in ethanol, 280.65 K | 0.0109
in ethanol, 283.15 K | 0.0118
in ethanol, 285.65 K | 0.0129
in ethanol, 288.15 K | 0.014
in ethanol, 290.65 K | 0.0151
in ethanol, 293.15 K | 0.0164
in ethanol, 295.65 K | 0.0177
in ethanol, 298.15 K | 0.0191
in ethanol, 300.65 K | 0.0205
in ethanol, 303.15 K | 0.0221
in ethanol, 305.65 K | 0.0238
in ethanol, 308.15 K | 0.0255
in ethanol, 310.65 K | 0.0273
in ethanol, 313.15 K | 0.0293
in ethyl acetate, 278.15 K | 0.0125
in ethyl acetate, 280.65 K | 0.0136
in ethyl acetate, 283.15 K | 0.0149
in ethyl acetate, 285.65 K | 0.0161
in ethyl acetate, 288.15 K | 0.0176
in ethyl acetate, 290.65 K | 0.0191
in ethyl acetate, 293.15 K | 0.0206
in ethyl acetate, 295.65 K | 0.0222
in ethyl acetate, 298.15 K | 0.0241
in ethyl acetate, 300.65 K | 0.0259
in ethyl acetate, 303.15 K | 0.0278
in ethyl acetate, 308.15 K | 0.0321
in ethyl acetate, 310.65 K | 0.0343
in ethyl acetate, 313.15 K | 0.0368
in ethylbenzene, 278.15 K | 0.00011
in ethylbenzene, 280.65 K | 0.00013
in ethylbenzene, 283.15 K | 0.000149
in ethylbenzene, 285.65 K | 0.000172
in ethylbenzene, 288.15 K | 0.000196
in ethylbenzene, 290.65 K | 0.000224
in ethylbenzene, 293.15 K | 0.000255
in ethylbenzene, 295.65 K | 0.00029
in ethylbenzene, 298.15 K | 0.000326
in ethylbenzene, 300.65 K | 0.000371
in ethylbenzene, 303.15 K | 0.000418
in ethylbenzene, 305.65 K | 0.000472
in ethylbenzene, 308.15 K | 0.000528
in ethylbenzene, 310.65 K | 0.000594
in ethylbenzene, 313.15 K | 0.000664
in isopropanol, 278.15 K | 0.00925
in isopropanol, 280.65 K | 0.0101
in isopropanol, 283.15 K | 0.0111
in isopropanol, 285.65 K | 0.012
in isopropanol, 288.15 K | 0.0131
in isopropanol, 290.65 K | 0.0143
in isopropanol, 293.15 K | 0.0155
in isopropanol, 295.65 K | 0.0167
in isopropanol, 298.15 K | 0.0181
in isopropanol, 300.65 K | 0.0195
in isopropanol, 303.15 K | 0.0211
in isopropanol, 305.65 K | 0.0227
in isopropanol, 308.15 K | 0.0244
in isopropanol, 310.65 K | 0.0262
in isopropanol, 313.15 K | 0.0282
in n-butanol, 278.15 K | 0.00768
in n-butanol, 280.65 K | 0.0084
in n-butanol, 283.15 K | 0.00925
in n-butanol, 285.65 K | 0.0102
in n-butanol, 288.15 K | 0.0111
in n-butanol, 290.65 K | 0.0121
in n-butanol, 293.15 K | 0.0132
in n-butanol, 295.65 K | 0.0144
in n-butanol, 298.15 K | 0.0157
in n-butanol, 300.65 K | 0.017
in n-butanol, 303.15 K | 0.0184
in n-butanol, 305.65 K | 0.0199
in n-butanol, 308.15 K | 0.0215
in n-butanol, 310.65 K | 0.0232
in n-butanol, 313.15 K | 0.025
in n-propanol, 278.15 K | 0.00869
in n-propanol, 280.65 K | 0.0095
in n-propanol, 283.15 K | 0.0103
in n-propanol, 285.65 K | 0.0113
in n-propanol, 288.15 K | 0.0123
in n-propanol, 290.65 K | 0.0134
in n-propanol, 293.15 K | 0.0144
in n-propanol, 295.65 K | 0.0157
in n-propanol, 298.15 K | 0.017
in n-propanol, 300.65 K | 0.0184
in n-propanol, 303.15 K | 0.0198
in n-propanol, 305.65 K | 0.0214
in n-propanol, 308.15 K | 0.023
in n-propanol, 310.65 K | 0.0248
in n-propanol, 313.15 K | 0.0266
in toluene, 278.15 K | 0.000136
in toluene, 280.65 K | 0.000157
in toluene, 283.15 K | 0.00018
in toluene, 285.65 K | 0.000204
in toluene, 288.15 K | 0.000233
in toluene, 290.65 K | 0.000266
in toluene, 293.15 K | 0.000299
in toluene, 295.65 K | 0.000339
in toluene, 298.15 K | 0.000384
in toluene, 300.65 K | 0.000427
in toluene, 303.15 K | 0.000478
in toluene, 305.65 K | 0.000533
in toluene, 308.15 K | 0.000597
in toluene, 310.65 K | 0.000668
in toluene, 313.15 K | 0.000742
